In PMC9053816, “A polypeptide model for toxic aberrant proteins induced by aminoglycoside antibiotics” (PLoS ONE, 2022):
“Also recorded” adds a separate entry of the source. Where two headings read alike, the source gives them in different places.

Tests used:
E. coli BL21 [1] = test: Cell viability (colony counts / spot dilution on LB agar); format: cell-based, Escherichia coli
Experimental: (§1) All growth studies were performed in Luria-Bertani (LB) broth containing Penicillin G (150 μg/ml), using E. coli BL21 as the host strain except where noted. Frozen stocks of cell strains were first grown overnight at 30°C, without shaking, in 2 ml of LB containing PenG. The starter cultures were then diluted 1:100 in 3.5 ml of LB containing PenG, in plastic 15x90 mm tubes with loose-fitting caps, and the tubes were then tilted about 15–20 degrees from vertical and incubated at 37°C with shaking (300 rpm). Cell growth for all experiments except those shown in Fig 1 was monitored at the indicated times by measuring the optical density of culture samples (diluted 1:10 in saline) at 600 nm, using a Perkin Elmer Lambda 14 UV/VIS spectrophotometer and semi-micro glass cuvettes (1 ml sample volume). For the experiments shown in Fig 1, OD600 measurements were performed on 200 μl of undiluted culture using a 96-well plate reader. […] To measure cell viability, culture samples were serially diluted in LB broth, mixed with molten top agar and plated on LB agar containing PenG. The number of colonies was then counted after overnight incubation of plates at 37°C.
Supplementary file pone.0258794.s001.tif: S1 Fig Bactericidal effect of Kanamycin. Samples of an E. coli BL21 culture growing in LB broth were treated at early log phase (T = 0) with Cm (30 μg/ml) or Kan (50 μg/ml). After further incubation at 37°C for 30 or 60 min, samples of the untreated (UT) and antibiotic-treated cultures were diluted (serial 1:10), and 3 μl of each dilution was spotted onto an LB agar plate. The plate was then photographed after incubation overnight at 37°C. (TIF) Click here for additional data file.

E. coli BL21 cells = test: Hoechst 33342 uptake by fluorescence microscopy; format: cell-based, Escherichia coli
Experimental: (§2) Culture samples (0.3 ml) collected at the indicated times were centrifuged and the cell pellets were resuspended in 20–100 μl of Tris-buffered saline pH 8 (TBS) and held on ice. Cell suspensions were then stained with 1 μl of Hoechst 33342 (10 mg/ml stock solution was first diluted 1:100 in TBS). After incubation for 10 min on ice, 2 μl samples of cell suspension were mounted on coverslides using agarose blocks as described. Cells were then examined by epi-fluorescence microscopy, using a Zeiss Axiophot and a 63X oil immersion lens. Exposure times for 2-channel images (both transmitted and reflected light) were set automatically using on-board Zen 2011 software. In some experiments as noted, exposure times for reflected light images were fixed at 1 s, for comparison of relative fluorescence intensity. Brightfield images of E. coli cell aggregates were taken with a Nikon Eclipse T2 inverted microscope using a 20X lens and laser-based LED white light source, located at the Brookhaven National Laboratory Center for Functional Nanomaterials.

E. coli BL21 nucleoids [2] = test: Nucleoid conformation by fluorescence microscopy; format: cell-based, Escherichia coli; conditions: for Nucleoid conformation: H33342 staining, BL21 (Fig 6, S6 Fig)
Experimental: as §2
A culture sample also was left untreated (UT) for comparison. Cell samples were then collected after further incubation for 20, 40 or 60 min, washed with PBS, stained with H33342, and mounted on glass slides under agarose pads for fluorescence microscopy using a 40X oil immersion lens. The exposure time for each image was automatically set by microscope software. Scale bar = 20 μm. (TIF) Click here for additional data file.

E. coli BL21 [3] = test: Growth analysis (culture OD600); format: cell-based, Escherichia coli
Experimental: as §1

E. coli BL21 nucleoids [4] = tested on: E. coli BL21 nucleoids; design: method as in PMID 25250841; conditions: transcription inhibited; cited from earlier work
E. coli DnaK = conditions: by comparison with NR and σ32 peptides; cited from earlier work

Experimental for σ32 transcription factor: E, Western blot analysis of σ32 levels in cells following exposure to the indicated antibiotics for 20, 60, or 120 min as indicated. Cell extract from a non-induced culture was loaded in lane 1.
Equal volumes of cell cultures were centrifuged, and cell pellets were resuspended directly in 2X Laemmli sample buffer at a concentration of 5 OD600 units per ml based on culture OD600 at the time of sampling. To reduce viscosity, samples were sonicated using a cuphorn sonicator or passed through a 27-gauge needle prior to loading on SDS-polyacrylamide gels. Proteins were visualized either by staining gels directly with Coomassie Blue or after semi-dry electroblotting to immobilon membranes for Western blot analysis. Anti-σ32 monoclonal antibodies were purchased from BioLegend, San Diego, CA. Rabbit anti-DnaK and DnaJ serum was kindly provided by B. Bukau. Anti-GroEL antibodies were purchased from Sigma-Aldrich.
An aliquot of culture also was left untreated (NI) for comparison. Cultures were then incubated at 37°C with shaking, and cell growth was monitored by measuring culture optical density at 600 nm (OD600) using a microplate reader. B, samples of each culture were collected at 20, 60 and 90 min after treatment, and cells were lysed in 2X SDS-PAGE sample buffer at a concentration of 1.2 OD600 units per ml. Equal volumes of each sample were then analyzed by Western blotting, using antibodies against σ32 and σ70. Only the 20 min and 60 min samples of the Spectinomycin-treated culture were analyzed.

O=C(N[C@H](CO)[C@H](O)c1ccc([N+](=O)[O-])cc1)C(Cl)Cl [Cm, chloramphenicol]
Cell viability following growth arrest (E. coli BL21 [1]; 30 μg/ml, samples at 0, 1, 2 and 5 h (Fig 2E)): remained viable for several hours | Cell viability during exposure (E. coli BL21 [1]; Cm 30 μg/ml, 30 or 60 min (S1 Fig)): fully retained | Cell viability at higher concentration (E. coli BL21 [1]; higher concentration than 30 μg/ml (200 μg/ml, Fig 2E)): increasingly toxic | Exposure time set automatically by camera software (H33342 fluorescence) (E. coli BL21 cells; 10 min after ARF48 induction or 60 min after Cm 30 or 200 μg/ml, non-induced culture 1.7 s): 0.22 s | Uptake of H33342 following exposure (E. coli BL21 cells; Cm 30 or 200 μg/ml (Fig 6)): enhanced | Nucleoid conformation (E. coli BL21 nucleoids [2]): radially condensed | Time until nucleoids radially condensed (E. coli BL21 nucleoids [2]; after induction of expression or after exposure): 30 to 45 min

NC[C@H]1O[C@H](O[C@H]2[C@H](O)[C@@H](O[C@H]3O[C@H](CO)[C@@H](O)[C@H](N)[C@H]3O)[C@H](N)C[C@@H]2N)[C@H](O)[C@@H](O)[C@@H]1O [Kan, kanamycin]
Cell division (E. coli BL21 [3]; low dose 3 μg/ml): slowed but did not completely halt cell division | Decrease of cell viability (E. coli BL21 [1]; first hour of exposure, Kan 50 μg/ml (S1 Fig)): 5–6 orders of magnitude | Nucleoid conformation (E. coli BL21 nucleoids [2]): only transient | σ32 concentration over time (σ32 transcription factor; 20, 60 or 120 min of exposure (Fig 1E)): remained elevated | σ32 level in cells (σ32 transcription factor; 60 min after exposure, range of doses (Fig 1D)): accumulated to high relative concentration

Cc1c2c(c(O)c3c(O)cccc13)C(=O)[C@]1(O)C(=O)C(C(N)=O)=C(O)[C@@H](N(C)C)[C@@H]1C2 [aTc, anhydrotetracycline]
Cell growth (E. coli BL21 [3]; 0.2 μg/ml in culture medium): not inhibited; also recorded: does not inhibit growth

CO[C@H]1/C=C/O[C@@]2(C)Oc3c(C)c(O)c4c(O)c(c(/C=N/N5CCN(C)CC5)c(O)c4c3C2=O)NC(=O)/C(C)=C\C=C\[C@H](C)[C@H](O)[C@@H](C)[C@@H](O)[C@@H](C)[C@H](OC(C)=O)[C@@H]1C [rifampicin]
Nucleoid conformation (E. coli BL21 nucleoids [4]): transient condensation

CN[C@@H]1[C@H](O)[C@H](NC)[C@H]2O[C@@]3(O)C(=O)C[C@@H](C)O[C@H]3O[C@@H]2[C@H]1O [spectinomycin]
σ32 levels following exposure (σ32 transcription factor; non-resistant cells, 20 μg/ml, 20 and 60 min (S2 Fig)): unchanged

Kemptide
Recognition by DnaK (earlier studies) (E. coli DnaK): poorly recognized
